Measurements as given in paper PMC7259601 (PLoS ONE, 2020).

How the values were obtained:
[1] = system: THP-1 cells; experiment: FACS based CD11B induction assay in THP-1; format: cell-based; settings: Homo sapiens; THP-1, 96 hr; read-out: EC50 induction of differentiation marker CD11B
Method: Human leukemic THP1 (ACC-16) cells ([…]) were obtained from DMSZ and maintained in RPMI 1640 medium (Cat# R0883; Sigma Aldrich) supplemented with 10 % heat inactivated fetal bovine serum (FBS; Cat# F9665; Sigma-Aldrich) and 2 mM Glutamine (Cat# X0550 Biowest).
THP-1 cells are acute leukemia cells with blast phenotype that can be induced to differentiate into a monocyte/macrophage phenotype by cell penetrant KDM1A inhibitors. Differentiation can be followed by measurement of induction of differentiation surface markers like CD11B. Cells were treated for 96 hr with KDM1A inhibitors. Fluorescent assisted cell sorting (FACS) analysis of CD11B expression was performed on 1.5 x 10^5 THP-1 cells (obtained from German Collection of microorganism and Cell Cultures; ACC-16) using a phycoerythrin-conjugated human CD11B-specific mouse monoclonal antibody (eBiosciences, #12-0118) at dilution 1:5 on a cytomics FC500 (Beckman Coulter) with FlowJo software. The mouse IgG1 K isotype (eBiosciences, #12-4714) was used as a control antibody. Concentration-response curves were determined out by assaying inhibitors at concentrations ranging between 0.32 and 200 nM.

[2] = target: T1, GR (h) (agonist radioligand) (Homo sapiens, UniProt P04150); experiment: CEREP Diversity Panel; format: binding
T1 construct: purchased CEREP (Eurofins Cerep)
T1 sequence (P04150 whole entry): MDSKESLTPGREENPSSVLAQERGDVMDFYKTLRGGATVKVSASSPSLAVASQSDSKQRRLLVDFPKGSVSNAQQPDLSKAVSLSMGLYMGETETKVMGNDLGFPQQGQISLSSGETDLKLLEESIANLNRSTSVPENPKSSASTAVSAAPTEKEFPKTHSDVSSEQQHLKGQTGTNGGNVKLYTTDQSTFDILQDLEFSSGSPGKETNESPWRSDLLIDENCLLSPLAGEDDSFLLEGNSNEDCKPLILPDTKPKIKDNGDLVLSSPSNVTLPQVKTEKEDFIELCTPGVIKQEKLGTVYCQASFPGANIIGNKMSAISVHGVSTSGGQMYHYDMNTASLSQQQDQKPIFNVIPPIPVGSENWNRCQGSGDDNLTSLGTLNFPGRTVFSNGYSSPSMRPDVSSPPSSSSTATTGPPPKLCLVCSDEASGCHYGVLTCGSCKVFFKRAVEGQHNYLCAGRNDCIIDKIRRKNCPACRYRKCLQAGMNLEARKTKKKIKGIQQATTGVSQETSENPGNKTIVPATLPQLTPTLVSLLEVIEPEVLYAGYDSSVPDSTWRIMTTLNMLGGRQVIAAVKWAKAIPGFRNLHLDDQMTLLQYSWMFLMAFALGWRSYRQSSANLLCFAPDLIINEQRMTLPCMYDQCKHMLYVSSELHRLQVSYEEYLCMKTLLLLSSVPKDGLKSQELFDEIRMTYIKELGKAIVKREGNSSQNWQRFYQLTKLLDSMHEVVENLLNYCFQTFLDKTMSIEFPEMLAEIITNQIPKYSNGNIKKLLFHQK
Method: (§1) […]. MAO-A inhibition at 10 μM was 37%, in line with internal data.

[3] = target: T2, AT1 (h) (antagonist radioligand) (Homo sapiens, UniProt P30556); experiment: CEREP Diversity Panel; format: binding
T2 construct: purchased CEREP (Eurofins Cerep)
T2 sequence (P30556 whole entry): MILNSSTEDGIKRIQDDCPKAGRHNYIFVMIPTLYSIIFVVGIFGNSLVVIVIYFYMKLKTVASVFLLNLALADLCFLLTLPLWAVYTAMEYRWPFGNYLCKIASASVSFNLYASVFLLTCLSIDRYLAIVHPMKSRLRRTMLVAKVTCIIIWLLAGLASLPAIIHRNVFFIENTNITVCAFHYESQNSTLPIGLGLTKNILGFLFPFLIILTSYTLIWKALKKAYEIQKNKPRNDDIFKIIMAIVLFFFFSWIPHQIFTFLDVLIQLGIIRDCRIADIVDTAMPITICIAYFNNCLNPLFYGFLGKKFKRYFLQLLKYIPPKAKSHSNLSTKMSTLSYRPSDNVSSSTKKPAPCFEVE
Method: as §1

[4] = target: T3, beta 1 (h) (agonist radioligand) (Homo sapiens, UniProt P08588); experiment: CEREP Diversity Panel; format: binding
T3 construct: purchased CEREP (Eurofins Cerep)
T3 sequence (P08588 whole entry): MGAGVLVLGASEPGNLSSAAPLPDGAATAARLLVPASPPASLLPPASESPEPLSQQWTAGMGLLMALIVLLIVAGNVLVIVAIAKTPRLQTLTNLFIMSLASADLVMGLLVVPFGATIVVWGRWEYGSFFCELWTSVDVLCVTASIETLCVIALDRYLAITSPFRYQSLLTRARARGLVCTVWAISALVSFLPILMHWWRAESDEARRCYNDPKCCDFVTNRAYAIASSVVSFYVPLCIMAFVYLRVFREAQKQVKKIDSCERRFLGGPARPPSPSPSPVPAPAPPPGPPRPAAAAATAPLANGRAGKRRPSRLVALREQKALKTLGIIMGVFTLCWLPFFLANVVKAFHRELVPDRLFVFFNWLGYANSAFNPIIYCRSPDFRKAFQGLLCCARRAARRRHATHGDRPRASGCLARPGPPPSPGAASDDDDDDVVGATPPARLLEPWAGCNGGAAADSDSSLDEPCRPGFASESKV
Method: as §1

[5] = target: T4, IP (PGI2) (h) (agonist radioligand) (Homo sapiens, UniProt P43119); experiment: CEREP Diversity Panel; format: binding
T4 construct: purchased CEREP (Eurofins Cerep)
Method: as §1

[6] = target: T5, dopamine transporter (h) (antagonist radioligand) (Homo sapiens, UniProt Q01959); experiment: CEREP Diversity Panel; format: binding
T5 construct: purchased CEREP (Eurofins Cerep)
Method: as §1

[7] = target: T6, A2A (h) (agonist radioligand) (Homo sapiens, UniProt P29274); experiment: CEREP Diversity Panel; format: binding
T6 construct: purchased CEREP (Eurofins Cerep)
Method: as §1

[8] = target: T7, NK1 (h) (agonist radioligand) (Homo sapiens, UniProt P25103); experiment: CEREP Diversity Panel; format: binding
T7 construct: purchased CEREP (Eurofins Cerep)
Method: as §1

[9] = target: T8, CB1 (h) (agonist radioligand) (Homo sapiens, UniProt P21554); experiment: CEREP Diversity Panel; format: binding
T8 construct: purchased CEREP (Eurofins Cerep)
Method: as §1

[10] = target: T9, TRH1 (h) (agonist radioligand) (Homo sapiens, UniProt P34981); experiment: CEREP Diversity Panel; format: binding
T9 construct: purchased CEREP (Eurofins Cerep)
Method: as §1

[11] = target: HDAC3 (h) (Homo sapiens, UniProt O15379); experiment: Epigenetic selectivity profile; format: biochemical
Method: as §1

[12] = target: JMJD3 (h) (Homo sapiens, UniProt O15054); experiment: Epigenetic selectivity profile; format: biochemical
Method: as §1

[13] = target: HDAC6 (h) (Homo sapiens, UniProt Q9UBN7); experiment: Epigenetic selectivity profile; format: biochemical
Method: as §1

[14] = target: (h)p300 (Homo sapiens, UniProt Q09472); experiment: Epigenetic selectivity profile; format: biochemical
Method: as §1

[15] = target: FBXL10 (h) (Homo sapiens, UniProt Q8NHM5); experiment: Epigenetic selectivity profile; format: biochemical
FBXL10 (h), sequence (Q8NHM5 whole entry): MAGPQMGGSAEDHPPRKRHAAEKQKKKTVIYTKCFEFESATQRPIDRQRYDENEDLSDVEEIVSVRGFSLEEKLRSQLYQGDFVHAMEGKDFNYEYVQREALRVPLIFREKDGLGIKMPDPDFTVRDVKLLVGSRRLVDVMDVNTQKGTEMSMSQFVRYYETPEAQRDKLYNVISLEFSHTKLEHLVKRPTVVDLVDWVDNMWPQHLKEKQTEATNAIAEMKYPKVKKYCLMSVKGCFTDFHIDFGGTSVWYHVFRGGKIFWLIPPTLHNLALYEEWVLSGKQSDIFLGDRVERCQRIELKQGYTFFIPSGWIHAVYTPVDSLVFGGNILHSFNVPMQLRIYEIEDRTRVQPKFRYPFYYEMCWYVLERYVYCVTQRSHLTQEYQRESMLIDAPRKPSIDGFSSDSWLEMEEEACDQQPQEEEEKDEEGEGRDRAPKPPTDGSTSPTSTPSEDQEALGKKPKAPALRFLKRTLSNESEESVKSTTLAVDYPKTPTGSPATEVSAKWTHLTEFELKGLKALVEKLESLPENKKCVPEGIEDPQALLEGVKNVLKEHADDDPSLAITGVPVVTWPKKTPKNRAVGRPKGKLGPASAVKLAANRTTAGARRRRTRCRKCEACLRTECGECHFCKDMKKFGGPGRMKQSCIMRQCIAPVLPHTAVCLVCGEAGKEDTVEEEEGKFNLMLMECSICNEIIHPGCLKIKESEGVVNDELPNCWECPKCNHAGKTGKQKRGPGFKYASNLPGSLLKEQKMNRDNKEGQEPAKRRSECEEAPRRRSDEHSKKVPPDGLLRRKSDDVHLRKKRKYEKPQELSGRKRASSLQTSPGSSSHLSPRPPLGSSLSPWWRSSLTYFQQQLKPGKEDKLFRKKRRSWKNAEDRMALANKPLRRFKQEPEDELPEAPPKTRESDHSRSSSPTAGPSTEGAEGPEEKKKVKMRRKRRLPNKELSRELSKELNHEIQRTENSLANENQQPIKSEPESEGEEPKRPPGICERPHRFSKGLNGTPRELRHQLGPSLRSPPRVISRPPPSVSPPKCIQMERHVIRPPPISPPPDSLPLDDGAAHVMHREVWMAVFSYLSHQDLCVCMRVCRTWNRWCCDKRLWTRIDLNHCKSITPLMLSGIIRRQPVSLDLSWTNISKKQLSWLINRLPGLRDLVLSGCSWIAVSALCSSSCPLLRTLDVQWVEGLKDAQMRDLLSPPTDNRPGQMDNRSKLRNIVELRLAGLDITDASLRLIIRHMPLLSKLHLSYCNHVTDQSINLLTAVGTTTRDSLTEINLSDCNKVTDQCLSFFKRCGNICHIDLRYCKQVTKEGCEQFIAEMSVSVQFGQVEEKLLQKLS
Method: as §1

[16] = target: HDAC11 (h) (Homo sapiens, UniProt Q96DB2); experiment: Epigenetic selectivity profile; format: biochemical
HDAC11 (h), sequence (Q96DB2 whole entry): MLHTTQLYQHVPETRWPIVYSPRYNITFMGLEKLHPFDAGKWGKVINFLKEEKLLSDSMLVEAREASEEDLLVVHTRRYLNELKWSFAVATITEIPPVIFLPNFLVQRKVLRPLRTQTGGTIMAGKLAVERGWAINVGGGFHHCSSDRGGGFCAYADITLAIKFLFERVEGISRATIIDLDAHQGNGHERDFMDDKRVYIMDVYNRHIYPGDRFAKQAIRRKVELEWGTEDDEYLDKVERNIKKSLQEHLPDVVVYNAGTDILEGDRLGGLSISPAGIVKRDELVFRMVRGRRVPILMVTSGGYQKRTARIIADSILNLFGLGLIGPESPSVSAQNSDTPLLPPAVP
Method: as §1

[17] = target: JMJD1A (h) (Homo sapiens, UniProt Q9Y4C1); experiment: Epigenetic selectivity profile; format: biochemical
Method: as §1

[18] = target: DOT1L (h) (Homo sapiens, UniProt Q8TEK3); experiment: Epigenetic selectivity profile; format: biochemical
Method: as §1

[19] = target: JMJD2A (h) (Homo sapiens, UniProt O75164); experiment: Epigenetic selectivity profile; format: biochemical
Method: as §1

[20] = target: HDAC4 (h) (Homo sapiens, UniProt P56524); experiment: Epigenetic selectivity profile; format: biochemical
HDAC4 (h), sequence (P56524 whole entry): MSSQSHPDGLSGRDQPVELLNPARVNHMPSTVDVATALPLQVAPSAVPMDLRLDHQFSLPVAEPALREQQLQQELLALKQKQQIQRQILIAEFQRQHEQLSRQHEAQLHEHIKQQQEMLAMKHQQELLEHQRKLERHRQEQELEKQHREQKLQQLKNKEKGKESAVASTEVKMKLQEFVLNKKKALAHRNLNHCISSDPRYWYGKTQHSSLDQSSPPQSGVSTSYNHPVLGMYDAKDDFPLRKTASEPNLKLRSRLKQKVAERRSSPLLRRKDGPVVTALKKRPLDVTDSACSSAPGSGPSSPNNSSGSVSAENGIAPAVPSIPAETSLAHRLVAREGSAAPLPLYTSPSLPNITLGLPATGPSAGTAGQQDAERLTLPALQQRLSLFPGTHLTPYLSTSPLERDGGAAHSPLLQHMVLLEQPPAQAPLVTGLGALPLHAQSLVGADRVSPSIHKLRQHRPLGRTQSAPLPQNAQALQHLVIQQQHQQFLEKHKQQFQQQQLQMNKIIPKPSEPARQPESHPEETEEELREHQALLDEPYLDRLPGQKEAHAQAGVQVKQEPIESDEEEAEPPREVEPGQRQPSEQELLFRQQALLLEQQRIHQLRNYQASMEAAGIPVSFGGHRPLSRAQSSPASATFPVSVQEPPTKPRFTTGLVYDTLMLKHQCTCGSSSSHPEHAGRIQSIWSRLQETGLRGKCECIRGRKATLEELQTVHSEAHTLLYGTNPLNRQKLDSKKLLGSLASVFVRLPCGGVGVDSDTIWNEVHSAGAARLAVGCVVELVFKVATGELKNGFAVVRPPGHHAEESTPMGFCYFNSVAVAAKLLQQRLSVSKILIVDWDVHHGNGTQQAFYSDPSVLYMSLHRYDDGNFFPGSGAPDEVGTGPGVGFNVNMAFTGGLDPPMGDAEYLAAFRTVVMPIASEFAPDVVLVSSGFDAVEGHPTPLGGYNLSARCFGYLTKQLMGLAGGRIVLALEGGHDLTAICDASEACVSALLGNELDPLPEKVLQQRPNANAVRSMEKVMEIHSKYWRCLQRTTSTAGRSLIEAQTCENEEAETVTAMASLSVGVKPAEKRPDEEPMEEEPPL
Method: as §1

[21] = target: sirtuin 2 (h) (Homo sapiens, UniProt Q8IXJ6); experiment: Epigenetic selectivity profile; format: biochemical
sirtuin 2 (h), sequence (Q8IXJ6 whole entry): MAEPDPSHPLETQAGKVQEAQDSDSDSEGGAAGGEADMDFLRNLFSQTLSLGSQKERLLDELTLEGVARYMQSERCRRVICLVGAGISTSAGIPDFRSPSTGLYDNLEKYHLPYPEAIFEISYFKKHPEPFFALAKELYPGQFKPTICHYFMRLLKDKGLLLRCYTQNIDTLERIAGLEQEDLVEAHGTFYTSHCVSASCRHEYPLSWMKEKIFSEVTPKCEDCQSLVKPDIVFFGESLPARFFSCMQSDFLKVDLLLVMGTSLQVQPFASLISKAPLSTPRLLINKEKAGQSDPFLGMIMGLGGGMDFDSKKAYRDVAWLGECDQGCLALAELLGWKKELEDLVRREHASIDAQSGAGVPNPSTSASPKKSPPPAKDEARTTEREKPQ
Method: as §1

[22] = target: SETD7 (h) (Homo sapiens, UniProt Q8WTS6); experiment: Epigenetic selectivity profile; format: biochemical
Method: as §1

[23] = target: MLL complex (h) (Homo sapiens, UniProt Q03164); experiment: Epigenetic selectivity profile; format: biochemical
Method: as §1

[24] = target: sirtuin 1 (h) (inhibitor effect) (Homo sapiens, UniProt Q96EB6); experiment: Epigenetic selectivity profile; format: biochemical
Method: as §1

[25] = target: SUV39H1 (h) (Homo sapiens, UniProt O43463); experiment: Epigenetic selectivity profile; format: biochemical
Method: as §1

[26] = target: DNMT1 (h) (Homo sapiens, UniProt P26358); experiment: Epigenetic selectivity profile; format: biochemical
Method: as §1

[27] = target: JARID1A (h) (Homo sapiens, UniProt P29375); experiment: Epigenetic selectivity profile; format: biochemical
Method: as §1

Q: For Nc1nnc(CN[C@@H]2C[C@H]2c2ccc(OCc3ccccc3)cc2)o1 [ORY-2001, vafidemstat], which EC50 [1] is on record?
A: 21 nM

Q: And the inhibition at 10 µM [2]?
A: -9%

Q: What about the inhibition at 10 µM [3] of the same compound?
A: -2%

Q: And the inhibition at 10 µM [4]?
A: 7%

Q: And the inhibition at 10 µM [5]?
A: 31%

Q: And the inhibition at 10 µM [6]?
A: 33%

Q: What about the inhibition at 10 µM [7] of the same compound?
A: -8%

Q: And the inhibition at 10 µM [8]?
A: 3%

Q: What about the inhibition at 10 µM [9] of the same compound?
A: 5%

Q: What about the inhibition at 10 µM [10] of the same compound?
A: 3%

Q: What about the inhibition at 10 µM [11] of the same compound?
A: -1%

Q: What about the inhibition at 10 µM [12] of the same compound?
A: 4%

Q: What about the inhibition at 10 µM [13] of the same compound?
A: 0%

Q: And the inhibition at 10 µM [14]?
A: 0%

Q: What about the inhibition at 10 µM [15] of the same compound?
A: 8%

Q: What about the inhibition at 10 µM [16] of the same compound?
A: -2%

Q: And the inhibition at 10 µM [17]?
A: -11%

Q: What about the inhibition at 10 µM [18] of the same compound?
A: -1%

Q: What about the inhibition at 10 µM [19] of the same compound?
A: 7%

Q: What about the inhibition at 10 µM [20] of the same compound?
A: 0%

Q: And the inhibition at 10 µM [21]?
A: 5%

Q: What about the inhibition at 10 µM [22] of the same compound?
A: -3%

Q: And the inhibition at 10 µM [23]?
A: 3%

Q: And the inhibition at 10 µM [24]?
A: 1%

Q: And the inhibition at 10 µM [25]?
A: -7%

Q: And the inhibition at 10 µM [26]?
A: 15%

Q: What about the inhibition at 10 µM [27] of the same compound?
A: 2%
